Test results from ChEMBL document CHEMBL1671854, “ramR mutations involved in efflux-mediated multidrug resistance in Salmonella enterica serovar Typhimurium” (2008).

Tests used:
Format in all cases: functional, Salmonella enterica subsp. enterica serovar Typhimurium
Salmonella typhimurium [1] = assay: Antimicrobial activity against multidrug-resistant Salmonella enterica serovar Typhimurium 902SA92 harboring GyrA S83A and D87N, GyrB S464F and ParC S80I mutant genes by agar doubling dilution method
Salmonella typhimurium [2] = assay: Antimicrobial activity against multidrug-resistant Salmonella enterica serovar Typhimurium 902SA92 harboring plasmid encoded RamR gene, GyrA S83A and D87N, GyrB S464F and ParC S80I mutant genes by agar doubling dilution method
Salmonella typhimurium [3] = assay: Antimicrobial activity against ramA::kan-deficient Salmonella enterica serovar Typhimurium 902SA92 harboring GyrA S83A and D87N, GyrB S464F and ParC S80I mutant genes by agar doubling dilution method
Salmonella typhimurium [4] = assay: Antimicrobial activity against multidrug-resistant Salmonella enterica serovar Typhimurium 102SA00 harboring GyrA S83A and D87N, GyrB S464F and ParC S80I mutant genes by agar doubling dilution method
Salmonella typhimurium [5] = assay: Antimicrobial activity against multidrug-resistant Salmonella enterica serovar Typhimurium 102SA00 harboring plasmid encoded RamR gene, GyrA S83A and D87N, GyrB S464F and ParC S80I mutant genes by agar doubling dilution method
Salmonella typhimurium [6] = assay: Antimicrobial activity against ramA::kan-deficient Salmonella enterica serovar Typhimurium 102SA00 harboring GyrA S83A and D87N, GyrB S464F and ParC S80I mutant genes by agar doubling dilution method
Salmonella typhimurium [7] = assay: Antimicrobial activity against multidrug-resistant Salmonella enterica serovar Typhimurium BN10055 harboring GyrA S83Y mutant gene by agar doubling dilution method
Salmonella typhimurium [8] = assay: Antimicrobial activity against multidrug-resistant Salmonella enterica serovar Typhimurium BN10055 harboring plasmid encoded RamR gene, GyrA S83Y mutant gene by agar doubling dilution method
Salmonella typhimurium [9] = assay: Antimicrobial activity against ramA::kan-deficient Salmonella enterica serovar Typhimurium BN10055 harboring GyrA S83Y mutant gene by agar doubling dilution method
Salmonella typhimurium [10] = assay: Antimicrobial activity against multidrug-resistant Salmonella enterica serovar Typhimurium 543SA98 harboring GyrA […] mutant gene by agar doubling dilution method
Salmonella typhimurium [11] = assay: Antimicrobial activity against multidrug-resistant Salmonella enterica serovar Typhimurium 543SA98 harboring plasmid encoded RamR gene, GyrA S83Y mutant gene by agar doubling dilution method
Salmonella typhimurium [12] = assay: Antimicrobial activity against ramA::kan-deficient Salmonella enterica serovar Typhimurium 543SA98 harboring GyrA S83Y mutant gene by agar doubling dilution method
Salmonella typhimurium [13] = assay: Antimicrobial activity against multidrug-resistant Salmonella enterica serovar Typhimurium BN9945 by agar doubling dilution method
Salmonella typhimurium [14] = assay: Antimicrobial activity against multidrug-resistant Salmonella enterica serovar Typhimurium BN9945 harboring plasmid encoded RamR gene by agar doubling dilution method
Salmonella typhimurium [15] = assay: Antimicrobial activity against ramA::kan-deficient Salmonella enterica serovar Typhimurium BN9945 by agar doubling dilution method
Salmonella typhimurium [16] = assay: Antimicrobial activity against multidrug-resistant Salmonella enterica serovar Typhimurium BN9181 by agar doubling dilution method
Salmonella typhimurium [17] = assay: Antimicrobial activity against multidrug-resistant Salmonella enterica serovar Typhimurium BN9181 harboring plasmid encoded RamR gene by agar doubling dilution method
Salmonella typhimurium [18] = assay: Antimicrobial activity against ramA::kan-deficient Salmonella enterica serovar Typhimurium BN9181 by agar doubling dilution method
Salmonella typhimurium [19] = assay: Antimicrobial activity against Salmonella enterica serovar Typhimurium S/921495 by agar doubling dilution method
Salmonella typhimurium [20] = assay: Antimicrobial activity against marR::kan-deficient Salmonella enterica serovar Typhimurium S/921495 by agar doubling dilution method
Salmonella typhimurium [21] = assay: Antimicrobial activity against marR-deficient Salmonella enterica serovar Typhimurium S/921495 by agar doubling dilution method
Salmonella typhimurium [22] = assay: Antimicrobial activity against marA::kan-deficient Salmonella enterica serovar Typhimurium S/921495 by agar doubling dilution method
Salmonella typhimurium [23] = assay: Antimicrobial activity against soxR::kan-deficient Salmonella enterica serovar Typhimurium S/921495 by agar doubling dilution method
Salmonella typhimurium [24] = assay: Antimicrobial activity against soxS::kan-deficient Salmonella enterica serovar Typhimurium S/921495 by agar doubling dilution method
Salmonella typhimurium [25] = assay: Antimicrobial activity against Salmonella enterica serovar Typhimurium S/921495 harboring plasmid encoded RamR gene by agar doubling dilution method
Salmonella typhimurium [26] = assay: Antimicrobial activity against ramR-deficient Salmonella enterica serovar Typhimurium S/921495 harboring plasmid encoded RamR gene by agar doubling dilution method
Salmonella typhimurium [27] = assay: Antimicrobial activity against ramA::kan-deficient Salmonella enterica serovar Typhimurium S/921495 by agar doubling dilution method
Salmonella typhimurium [28] = assay: Antimicrobial activity against Salmonella enterica serovar Typhimurium BN18 by agar doubling dilution method
Salmonella typhimurium [29] = assay: Antimicrobial activity against Salmonella enterica serovar Typhimurium BN18 harboring plasmid encoded RamR gene by agar doubling dilution method
Salmonella typhimurium [30] = assay: Antimicrobial activity against ramA::kan-deficient Salmonella enterica serovar Typhimurium BN18 by agar doubling dilution method
Salmonella typhimurium [31] = assay: Antimicrobial activity against Salmonella enterica serovar Typhimurium BN18/21 by agar doubling dilution method
Salmonella typhimurium [32] = assay: Antimicrobial activity against Salmonella enterica serovar Typhimurium BN18/21 harboring plasmid encoded RamR gene by agar doubling dilution method
Salmonella typhimurium [33] = assay: Antimicrobial activity against ramA::kan-deficient Salmonella enterica serovar Typhimurium BN18/21 by agar doubling dilution method
Salmonella typhimurium [34] = assay: Antimicrobial activity against Salmonella enterica serovar Typhimurium BN18/41 harboring GyrA G81C,acrR mutant genes by agar doubling dilution method
Salmonella typhimurium [35] = assay: Antimicrobial activity against Salmonella enterica serovar Typhimurium BN18/41 harboring plasmid encoded RamR gene, GyrA G81C,acrR mutant genes by agar doubling dilution method
Salmonella typhimurium [36] = assay: Antimicrobial activity against ramA::kan-deficient Salmonella enterica serovar Typhimurium BN18/41 harboring plasmid encoded RamR gene, GyrA G81C,acrR mutant genes by agar doubling dilution method
Salmonella typhimurium [37] = assay: Antimicrobial activity against Salmonella enterica serovar Typhimurium BN18/71 harboring GyrA G81C, acrR mutant genes by agar doubling dilution method
Salmonella typhimurium [38] = assay: Antimicrobial activity against Salmonella enterica serovar Typhimurium BN18/71 harboring plasmid encoded RamR gene, GyrA G81C,acrR mutant genes by agar doubling dilution method
Salmonella typhimurium [39] = assay: Antimicrobial activity against ramA::kan-deficient Salmonella enterica serovar Typhimurium BN18/71 harboring plasmid encoded RamR gene, GyrA G81C,acrR mutant genes by agar doubling dilution method
Salmonella typhimurium [40] = assay: Antimicrobial activity against ramR::kan-deficient Salmonella enterica serovar Typhimurium S/921495 by agar doubling dilution method
Salmonella typhimurium [41] = assay: Antimicrobial activity against ramR-deficient Salmonella enterica serovar Typhimurium S/921495 by agar doubling dilution method

Measured: MIC

CCn1cc(C(=O)O)c(=O)c2ccc(C)nc21 [NALIDIXIC ACID]
8 µg/mL: Salmonella typhimurium [32] | Salmonella typhimurium [33]
16 µg/mL: Salmonella typhimurium [40] | Salmonella typhimurium [41]
4100 µg/mL: Salmonella typhimurium [2] | Salmonella typhimurium [3] | Salmonella typhimurium [5] | Salmonella typhimurium [6] | Salmonella typhimurium [35] | Salmonella typhimurium [36] | Salmonella typhimurium [38] | Salmonella typhimurium [39]
512 µg/mL: Salmonella typhimurium [9] | Salmonella typhimurium [11] | Salmonella typhimurium [12] | Salmonella typhimurium [14] | Salmonella typhimurium [15]
1020 µg/mL: Salmonella typhimurium [10] | Salmonella typhimurium [13]
64 µg/mL: Salmonella typhimurium [31]
2 µg/mL: Salmonella typhimurium [20] | Salmonella typhimurium [21] | Salmonella typhimurium [23]
> 4100 µg/mL: Salmonella typhimurium [1] | Salmonella typhimurium [4] | Salmonella typhimurium [7] | Salmonella typhimurium [8] | Salmonella typhimurium [34] | Salmonella typhimurium [37]
4 µg/mL: all other assays above

CN(C)[C@@H]1C(O)=C(C(N)=O)C(=O)[C@@]2(O)C(O)=C3C(=O)c4c(O)cccc4[C@@](C)(O)[C@H]3C[C@@H]12 [TETRACYCLINE]
32 µg/mL: Salmonella typhimurium [11] | Salmonella typhimurium [12] | Salmonella typhimurium [14] | Salmonella typhimurium [15] | Salmonella typhimurium [16] | Salmonella typhimurium [17] | Salmonella typhimurium [18]
128 µg/mL: Salmonella typhimurium [10] | Salmonella typhimurium [13]
64 µg/mL: Salmonella typhimurium [9]
8 µg/mL: Salmonella typhimurium [34]
256 µg/mL: Salmonella typhimurium [1] | Salmonella typhimurium [2] | Salmonella typhimurium [3] | Salmonella typhimurium [4] | Salmonella typhimurium [5] | Salmonella typhimurium [6] | Salmonella typhimurium [7] | Salmonella typhimurium [8]
2 µg/mL: Salmonella typhimurium [35] | Salmonella typhimurium [36] | Salmonella typhimurium [38] | Salmonella typhimurium [39]
4 µg/mL: Salmonella typhimurium [31] | Salmonella typhimurium [40] | Salmonella typhimurium [41]
16 µg/mL: Salmonella typhimurium [37]
1 µg/mL: all other assays above
